Values quoted from earlier work, collected in patent US5607673A, “Purified extract of uvaria brevistipitata and a process for obtaining the purified extract therefor” (C.S.S.A.H.A., Inc., priority 1995, dated 1997).

Experiments:
[1] = tested on: NADH-Ubiquinone Reductase (Complex I); settings: Degli et al. 1994; for Complex I inhibitory constant and protein dependence of titer vs classical inhibitors: bovine submitochondrial particles
tumor = settings: Cole et al. 1976
[2] = tested on: multi-drug resistant K 1 strain of plasmodium falciparum; settings: in vitro; Nkunya et al. 1991
[3] = U.S. Pat. No. 5,229,419
[4] = tested on: P-388 lymphocytic leukemia; settings: in vitro; Jolad et al. 1982
[5] = tested on: P-388 mouse lymphocytic leukemia cells; settings: Lumonadio et al. 1991
Colon-38 adenocarcinoma = settings: Lumonadio et al. 1991

In the case of CCCCCCCCCC[C@H](O)[C@H]1CC[C@@H]([C@@H]2CC[C@H]([C@H](O)CCCCCCCCCC[C@@H](O)CC3=C[C@H](C)OC3=O)O2)O1 [Rolliniastatin-1], the “Complex I inhibitory constant and protein dependence of titer vs classical inhibitors” value [1] is given as “more powerful”.

For COc1cc(O)c(Cc2ccccc2O)c(O)c1C(=O)CCc1ccccc1 [Uvaratin], the anti-tumor activity (tumor) is listed as “shown to have anti-tumor activity”.

For COc1cc(O)c(Cc2ccccc2O)c(O)c1C(=O)CCc1ccccc1 [Uvaretin], the anti-malarial activity [2] is given as “most active”.

In the case of CCCCCCCCCC[C@H](O)[C@H]1CC[C@H]([C@H]2CC[C@H]([C@H](O)CCCCCCCCCC[C@@H]3CC(CC(C)=O)C(=O)O3)O2)O1 (stereo partly shown) [bullatacinone], the “antitumor and pesticidal activity” value [3] is given as “exhibit antitumor and pesticidal activity”.

In the case of CCCCCCCCCC[C@H](OC(C)=O)[C@H]1CC[C@H]([C@H]2CC[C@H]([C@H](O)CCCCCCCCCCCCC3=C[C@H](C)OC3=O)O2)O1 [Uvaricin], the “activity against P-388 lymphocytic leukemia” value [4] is listed as “demonstrated an in vitro activity”.

For 15-desacetylundulatone, the “activity against P-388 cells” value [5] is given as “active” and the “activity against Colon-38 adenocarcinoma” value (Colon-38 adenocarcinoma) is given as “active”.

For CCCCCC[C@H](O)CCC[C@H](O)[C@H]1CC[C@H]([C@H]2CC[C@H]([C@H](O)CCCCCCCCCCCCC3=C[C@H](C)OC3=O)O2)O1 [Squamocin], the “Complex I inhibitory constant vs the classical inhibitor” value [1] is given as “lower than that of the classical inhibitor”.

In the case of CCCCCCCCCC[C@H](O)[C@H]1CC[C@H]([C@H]2CC[C@H]([C@H](O)CCCCCCCCCC[C@@H](O)CC3=C[C@H](C)OC3=O)O2)O1 [bullatacin], the “antitumor and pesticidal activity” value [3] is given as “exhibit antitumor and pesticidal activity”.

In the case of CC(C)=CC(O)C(O)C(C)=CCCC(C)=CCc1c[nH]c2ccccc12 (stereo not shown) [8',9'-dihydroxy-3-farnesylindole], the anti-malarial activity [2] is listed as “most active”.

For COc1c(Cc2ccccc2O)c(O)c(Cc2ccccc2O)c(O)c1C(=O)CCc1ccccc1 [Diuveretin], the anti-malarial activity [2] is given as “most active”.

For CCCCCCCCCC[C@H](O)[C@H]1CC[C@H]([C@H]2CC[C@H]([C@H](O)CCCCCCCCCCC(O)CC3=C[C@H](C)OC3=O)O2)O1 (stereo partly shown) [Rolliniastatin-2], the “Complex I inhibitory constant and protein dependence of titer vs classical inhibitors” value [1] is listed as “more powerful”.

For Otivarin, the “Complex I inhibitory constant vs the classical inhibitor” value [1] is listed as “lower than that of the classical inhibitor”.
